Reference: the supplement of paper PMC11451515

Tests used:
Settings in all cases: 48 h
P12-Ichikawa [1] = test: cell viability relative to DMSO control; higher = less cytotoxic
In short: (§1)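 NOMO1 or SEM (500 cells/well) or P12-Ichikawa (1000 cells/well) leukemia cells were adapted for at least four passages in each medium. They were seeded in 1536-well plates (5 μl) and pin-dosed with library compounds in DMSO over an 11-point threefold series, 47 μM to 0.79 nM. CellTiter-Glo One luminescence was read after 48 h at 37°C. Viability is the per-plate percentage relative to DMSO wells, with cell-free wells as background.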

NOMO1 [2] = test: as above
In short: as §1

SEM cells [3] = test: as above
In short: as §1

P12-Ichikawa [4] = test: AUC of viability dose-response curve (% viability x log10 dose units); higher = less sensitive
In short: (§2)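 Library compounds in DMSO were applied for 48 h at 37°C at 11 threefold doses (47 μM to 0.79 nM) to medium-adapted leukemia cells in 1536-well plates holding 500 or 1000 cells/well. Luminescence from CellTiter-Glo One was normalised plate by plate against DMSO and cell-free wells. Area under the curve came from trapezoidal integration of a log-logistic fit, after scaling curves that rose above full viability and discarding those that failed quality control. The fit had four parameters and used log10 doses.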

NOMO1 [5] = test: as above
In short: as §2

SEM cells [6] = test: as above
In short: as §2

COC(=O)[C@H](c1ccccc1Cl)N1CCc2sccc2C1
cell viability [%]
Settings	NOMO1 [2]	P12-Ichikawa [1]	SEM cells [3]
HPLM + 10% dialyzed FBS, 0.000781 µM	103	95.8	75.5
HPLM + 10% dialyzed FBS, 0.00234 µM	110	99.1	89.5
HPLM + 10% dialyzed FBS, 0.00702 µM	127	100	105
HPLM + 10% dialyzed FBS, 0.0211 µM	117	109	110
HPLM + 10% dialyzed FBS, 0.0632 µM	109	108	96.3
HPLM + 10% dialyzed FBS, 0.19 µM	104	113	111
HPLM + 10% dialyzed FBS, 0.569 µM	117	107	106
HPLM + 10% dialyzed FBS, 1.71 µM	37.4	110	120
HPLM + 10% dialyzed FBS, 5.12 µM	39.5	102	109
HPLM + 10% dialyzed FBS, 15.4 µM	24.8	15.7	121
HPLM + 10% dialyzed FBS, 46.1 µM	24.8	12.9	111
RPMI 5 mM glucose + 10% FBS, 0.000781 µM	87.8	101	87.5
RPMI 5 mM glucose + 10% FBS, 0.00234 µM	109	113	80.4
RPMI 5 mM glucose + 10% FBS, 0.00702 µM	89.1	120	97.2
RPMI 5 mM glucose + 10% FBS, 0.0211 µM	92.3	117	98.9
RPMI 5 mM glucose + 10% FBS, 0.0632 µM	103	120	93.3
RPMI 5 mM glucose + 10% FBS, 0.19 µM	93.7	125	102
RPMI 5 mM glucose + 10% FBS, 0.569 µM	97.4	122	106
RPMI 5 mM glucose + 10% FBS, 1.71 µM	21.7	113	103
RPMI 5 mM glucose + 10% FBS, 5.12 µM	20.9	115	107
RPMI 5 mM glucose + 10% FBS, 15.4 µM	15.9	21.4	107
RPMI 5 mM glucose + 10% FBS, 46.1 µM	14	14.1	108
RPMI 5 mM glucose + 10% dialyzed FBS, 0.000781 µM	81	91.6	84.1
RPMI 5 mM glucose + 10% dialyzed FBS, 0.00234 µM	90.5	105	84.1
RPMI 5 mM glucose + 10% dialyzed FBS, 0.00702 µM	101	109	86.5
RPMI 5 mM glucose + 10% dialyzed FBS, 0.0211 µM	94.4	111	108
RPMI 5 mM glucose + 10% dialyzed FBS, 0.0632 µM	100	115	110
RPMI 5 mM glucose + 10% dialyzed FBS, 0.19 µM	103	111	91.6
RPMI 5 mM glucose + 10% dialyzed FBS, 0.569 µM	102	118	95.3
RPMI 5 mM glucose + 10% dialyzed FBS, 1.71 µM	36.6	117	135
RPMI 5 mM glucose + 10% dialyzed FBS, 5.12 µM	22.8	104	116
RPMI 5 mM glucose + 10% dialyzed FBS, 15.4 µM	23.6	45.9	122
RPMI 5 mM glucose + 10% dialyzed FBS, 46.1 µM	22.2	18.7	99.5

AUC of viability dose-response curve
Settings	NOMO1 [5]	P12-Ichikawa [4]	SEM cells [6]
HPLM + 10% dialyzed FBS	357	414	449
RPMI 5 mM glucose + 10% FBS	328	416	440
RPMI 5 mM glucose + 10% dialyzed FBS	343	427	432
